This experiment relates to maternal HIV+ sera (antibodies). The experiment is described as follows: RIA / ELISA binding of maternal HIV+ sera to gp120 and gp41 peptides (Example 3). More on the design: species or system human. The method, then:
Radioimmunoassay (RIA) and enzyme-linked immunosorbent assay (ELISA) were performed by standard methodologies [E. Engvall, Meth. Immunol., 70:419-439 (1980); S. K. Pierce et al, J. Exp. Med., 144:1254-1262 (1976)]. Peptides were dissolved in 0.05M carbonate-bicarbonate buffer (pH 9.6) at a concentration of 10 μg/ml. Fifty μl (500 ng) of the peptides were immobilized in 96 well polyvinylchloride plates (Dynatech Laboratories, Inc.) overnight at 4° C. Plates were washed and non-specific sites were blocked with PBS containing 1% BSA overnight at 4° C.
Dilutions of HIV positive maternal sera were made in blocking buffer at dilutions of 1:50 and 1:500 and incubated in peptide coated plates overnight at 4° C. Plates were washed with PBS and incubated with 75,000 cpm of ^125 I-labelled goat anti-human IgG. The antibody was iodinated by a chloramine T method [W. V. Williams et al, Proc. Natl. Acad. Sci. USA, 85:6488-6492 (1988)]. Plates were washed, dried and counted in a gamma counter to measure specific binding. Normal human serum (i.e., HIV seronegative) was used as a control.
Alternatively, ELISA assays were performed in polystyrene plates (Dynatech Laboratories, Inc) in which 0.05% Tween 20 (Sigma Chemical Co.) was included in the washing, blocking and dilution buffers. The secondary antibody used was goat […] Ig conjugated to horseradish peroxidase (HRP) (Sigma Chemical Co). The substrate used for color development was 3,3',5,5' tetramethyl-benzidine dihydrochloride (TMB) (Sigma Chemical Co). Absorbance of samples was measured in a Dynatech MR5000 (Dynatech Laboratories, Inc.) plate reader and expressed as an optical density at wavelength of 450 nm (OD450).
The following key is used for the designation of specific binding of the maternal sera samples to the peptides: The minus sign, -, is equivalent to the specific OD450 or cpm of sera sample binding to peptide divided by the specific OD450 or cpm of NHS sample binding to peptide, which value is less than 2. The plus sign, +, is equivalent to the specific OD450 or cpm of sera sample binding to peptide divided by the specific OD450 or cpm of NHS sample binding to peptide, which value is between 2 to 3.
Specific binding is defined as the difference between the OD450 or cpm of sera to wells with peptide and the OD450 or cpm of sera to wells without peptide.
Comparisons of number of peptides which bound maternal serum samples were made between the transmission group and the nontransmission group. The data was analyzed using the unpaired student's test. For the determination of differences in the binding of specific peptides between transmission and non-transmission groups, the Spearman's rank-order correlation test was performed.

The mark [1] stands for this setting: Serum No. 1, Non-Transmission Group.
Setting [2] is: Serum No. 2, Non-Transmission Group.
The mark [3] stands for this setting: Serum No. 3, Non-Transmission Group.
[4] abbreviates: Serum No. 4, Transmission Group.
Setting [5] is: Serum No. 5, Transmission Group.
Setting [6] is: Serum No. 6, Non-Transmission Group.
The mark [7] stands for this setting: Serum No. 7, Non-Transmission Group.
[8] abbreviates: Serum No. 8, Non-Transmission Group.
The mark [9] stands for this setting: Serum No. 9, Non-Transmission Group.
[10] abbreviates: Serum No. 10, Transmission Group.
The mark [11] stands for this setting: Serum No. 11, Non-Transmission Group.
[12] abbreviates: Serum No. 12, Non-Transmission Group.
The mark [13] stands for this setting: Serum No. 13, Transmission Group.
[14] abbreviates: Serum No. 14, Transmission Group.
Where [15] appears, read: Serum No. 15, Transmission Group.
The mark [16] stands for this setting: Serum No. 16, Non-Transmission Group.
Setting [17] is: Serum No. 17, Non-Transmission Group.
[18] abbreviates: Serum No. 18, Non-Transmission Group.
The mark [19] stands for this setting: Serum No. 19, Transmission Group.
Where [20] appears, read: Serum No. 20, Non-Transmission Group.

On to ATEKLWVTVYYGVPVWLEATTTL [Peptide 60], for which, for the setting “Example 3”, the “Binding of maternal sera to peptide (in words)” value is “No binding”. Also, the “Binding of maternal HIV+ serum to peptide (sera/NHS ratio)” value (“Binding … (sera/NHS ratio)” for short) was “- (specific OD450 or cpm of sera sample binding to peptide divided by the specific OD450 or cpm of NHS sample binding to peptide, which value is less than 2)” under setting [1]; “- (specific OD450 or cpm of sera sample binding to peptide divided by the specific OD450 or cpm of NHS sample binding to peptide, which value is less than 2)” under setting [2]; “- (specific OD450 or cpm of sera sample binding to peptide divided by the specific OD450 or cpm of NHS sample binding to peptide, which value is less than 2)” under setting [3]; “- (specific OD450 or cpm of sera sample binding to peptide divided by the specific OD450 or cpm of NHS sample binding to peptide, which value is less than 2)” under setting [4]; “- (specific OD450 or cpm of sera sample binding to peptide divided by the specific OD450 or cpm of NHS sample binding to peptide, which value is less than 2)” under setting [5]; “- (specific OD450 or cpm of sera sample binding to peptide divided by the specific OD450 or cpm of NHS sample binding to peptide, which value is less than 2)” under setting [6]. The “Binding … (sera/NHS ratio)” value reads like this: under setting [7], “- (specific OD450 or cpm of sera sample binding to peptide divided by the specific OD450 or cpm of NHS sample binding to peptide, which value is less than 2)”; under setting [8], “- (specific OD450 or cpm of sera sample binding to peptide divided by the specific OD450 or cpm of NHS sample binding to peptide, which value is less than 2)”; under setting [9], “- (specific OD450 or cpm of sera sample binding to peptide divided by the specific OD450 or cpm of NHS sample binding to peptide, which value is less than 2)”; under setting [10], “- (specific OD450 or cpm of sera sample binding to peptide divided by the specific OD450 or cpm of NHS sample binding to peptide, which value is less than 2)”; under setting [11], “- (specific OD450 or cpm of sera sample binding to peptide divided by the specific OD450 or cpm of NHS sample binding to peptide, which value is less than 2)”; under setting [12], “- (specific OD450 or cpm of sera sample binding to peptide divided by the specific OD450 or cpm of NHS sample binding to peptide, which value is less than 2)”. For the same sequence, the “Binding … (sera/NHS ratio)” value reads like this: under setting [13], “- (specific OD450 or cpm of sera sample binding to peptide divided by the specific OD450 or cpm of NHS sample binding to peptide, which value is less than 2)”; under setting [14], “- (specific OD450 or cpm of sera sample binding to peptide divided by the specific OD450 or cpm of NHS sample binding to peptide, which value is less than 2)”; under setting [15], “- (specific OD450 or cpm of sera sample binding to peptide divided by the specific OD450 or cpm of NHS sample binding to peptide, which value is less than 2)”; under setting [16], “- (specific OD450 or cpm of sera sample binding to peptide divided by the specific OD450 or cpm of NHS sample binding to peptide, which value is less than 2)”; under setting [17], “- (specific OD450 or cpm of sera sample binding to peptide divided by the specific OD450 or cpm of NHS sample binding to peptide, which value is less than 2)”; under setting [18], “- (specific OD450 or cpm of sera sample binding to peptide divided by the specific OD450 or cpm of NHS sample binding to peptide, which value is less than 2)”. In addition, the “Binding … (sera/NHS ratio)” value is, setting by setting: under setting [19], “- (specific OD450 or cpm of sera sample binding to peptide divided by the specific OD450 or cpm of NHS sample binding to peptide, which value is less than 2)”; under setting [20], “- (specific OD450 or cpm of sera sample binding to peptide divided by the specific OD450 or cpm of NHS sample binding to peptide, which value is less than 2)”.
Turning to ASWSNKSLEQIWNNM [Peptide 36], the “Binding … (sera/NHS ratio)” value runs as follows: under setting [1], “- (specific OD450 or cpm of sera sample binding to peptide divided by the specific OD450 or cpm of NHS sample binding to peptide, which value is less than 2)”; under setting [2], “- (specific OD450 or cpm of sera sample binding to peptide divided by the specific OD450 or cpm of NHS sample binding to peptide, which value is less than 2)”; under setting [3], “- (specific OD450 or cpm of sera sample binding to peptide divided by the specific OD450 or cpm of NHS sample binding to peptide, which value is less than 2)”; under setting [4], “- (specific OD450 or cpm of sera sample binding to peptide divided by the specific OD450 or cpm of NHS sample binding to peptide, which value is less than 2)”; under setting [5], “- (specific OD450 or cpm of sera sample binding to peptide divided by the specific OD450 or cpm of NHS sample binding to peptide, which value is less than 2)”; under setting [6], “- (specific OD450 or cpm of sera sample binding to peptide divided by the specific OD450 or cpm of NHS sample binding to peptide, which value is less than 2)”. For the same sequence, the “Binding … (sera/NHS ratio)” value under setting [7] is reported as “- (specific OD450 or cpm of sera sample binding to peptide divided by the specific OD450 or cpm of NHS sample binding to peptide, which value is less than 2)”; the “Binding … (sera/NHS ratio)” value under setting [8] is “- (specific OD450 or cpm of sera sample binding to peptide divided by the specific OD450 or cpm of NHS sample binding to peptide, which value is less than 2)”; the “Binding … (sera/NHS ratio)” value under setting [9] is “- (specific OD450 or cpm of sera sample binding to peptide divided by the specific OD450 or cpm of NHS sample binding to peptide, which value is less than 2)”; the “Binding … (sera/NHS ratio)” value under setting [10] was “- (specific OD450 or cpm of sera sample binding to peptide divided by the specific OD450 or cpm of NHS sample binding to peptide, which value is less than 2)”; the “Binding … (sera/NHS ratio)” value under setting [11] is on record as “- (specific OD450 or cpm of sera sample binding to peptide divided by the specific OD450 or cpm of NHS sample binding to peptide, which value is less than 2)”; the “Binding … (sera/NHS ratio)” value under setting [12] is “- (specific OD450 or cpm of sera sample binding to peptide divided by the specific OD450 or cpm of NHS sample binding to peptide, which value is less than 2)”. Also, the “Binding … (sera/NHS ratio)” value by setting is: under setting [13], “- (specific OD450 or cpm of sera sample binding to peptide divided by the specific OD450 or cpm of NHS sample binding to peptide, which value is less than 2)”; under setting [14], “- (specific OD450 or cpm of sera sample binding to peptide divided by the specific OD450 or cpm of NHS sample binding to peptide, which value is less than 2)”; under setting [15], “- (specific OD450 or cpm of sera sample binding to peptide divided by the specific OD450 or cpm of NHS sample binding to peptide, which value is less than 2)”; under setting [16], “- (specific OD450 or cpm of sera sample binding to peptide divided by the specific OD450 or cpm of NHS sample binding to peptide, which value is less than 2)”; under setting [17], “- (specific OD450 or cpm of sera sample binding to peptide divided by the specific OD450 or cpm of NHS sample binding to peptide, which value is less than 2)”; under setting [18], “- (specific OD450 or cpm of sera sample binding to peptide divided by the specific OD450 or cpm of NHS sample binding to peptide, which value is less than 2)”. For the same sequence, the “Binding … (sera/NHS ratio)” value is given as “- (specific OD450 or cpm of sera sample binding to peptide divided by the specific OD450 or cpm of NHS sample binding to peptide, which value is less than 2)” under setting [19] and “- (specific OD450 or cpm of sera sample binding to peptide divided by the specific OD450 or cpm of NHS sample binding to peptide, which value is less than 2)” under setting [20].

Values taken from US5556744A, “Methods and compositions for diagnosing and treating certain HIV infected patients” (The Trustees of the University of Pennsylvania, priority 1994, dated 1996).
